Results on four molecules are retold here after PMC10609873, “Antidiabetic, Antihyperlipidemic, and Antioxidant Evaluation of Phytosteroids from Notholirion thomsonianum (Royle) Stapf” (Plants, 2023).

The subject of data set [1] is alloxan-induced diabetic rats. Briefly: body weight of fasting rats during treatment. It counts as in vivo. Particulars: NtSt01 1.0 mg/kg, glibenclamide 0.5 mg/kg. As to the method: Group 3: This group was the alloxan-induced diabetic group, which was treated with 0.5 mg/kg of the standard drug, glibenclamide.
Group 4: This group was the alloxan-induced diabetic group, which was treated with 1.0 mg/kg of NtSt01 intraperitoneally.

For data set [2], the system named is alloxan-induced diabetic rats. Briefly: lipid profile (antilipidemic effect). Particulars: NtSt01 1.0 mg/kg, glibenclamide 0.5 mg/kg; for LDL / S.Cholesterol: reference range 10–54; for S.Triglycerides: reference range 26–145; for HDL: reference range up to 50. It counts as in vivo. As to the method:
Standard methods were used for the analysis of total cholesterol, serum triglycerides, low-density lipoprotein (LDL), and high-density lipoprotein (HDL). Briefly, […] of serum sample was added to […] solution of triglyceride. The mixture was incubated for 10 min at 37 °C and the absorbance was recorded at 546 nm. To monitor blood cholesterol, diagnostic kits were utilized following the specifications of the manufacturer. […] For HDL concentration determination, 200 µL of serum sample and 500 µL of HDL solution were combined, and the mixture was allowed to stand at room temperature for 5 min. Again, the mixture was mixed and subjected to further centrifugation for 5 min, followed by supernatant collection. Then, 50 µL of supernatant of HDL was added to 500 µL of solution of cholesterol; the mixture was incubated at 37 °C for 5 min. Then, at 546 nm, the sample absorbance was measured. Similarly, LDL was determined in all groups following the manufacturer’s specifications. LDL = Total cholesterol […] − Triglycerides/5(4)

Data set [3] relates to α-amylase. Put plainly: in vitro α-amylase inhibition. It counts as biochemical. The protocol:
The inhibitory activity of our compounds against alpha-amylase enzymes was determined as per the previously reported protocols. Test samples of 100 µL were mixed with an enzyme solution (200 µL) and 100 µL of phosphate buffer (pH 6.9, 2 mM). The mixture was then incubated at 25 °C for 20 min, followed by the addition of 100 µL of starch solution (1%). The same procedure was followed for positive controls, where phosphate buffer was added instead of […] (200 µL). After 5 min of incubation, 3,5-dinitrosalicylic acid reagent (500 µL) was added to the test samples and control group. The mixtures were incubated again for 10 min; at 580 nm, the absorbance was recorded using a spectrophotometer. The alpha-amylase percent inhibition was calculated as:(2) % Amylase inhibition=1−Test sample abs./Control abs.×100

Data set [4] relates to rats. Briefly: acute toxicity study in rats. It counts as in vivo. Particulars: dose started at 200 and increased up to 2000 mg/kg body weight. As to the method:
In experimental animals, acute toxicity studies were performed to determine the safe dose of our test compounds for in vivo studies.

In data set [5] the target is α-glucosidase (Saccharomyces cerevisiae, UniProt P53341). Briefly: in vitro α-glucosidase inhibition. It counts as biochemical. The protocol:
The alpha-glucosidase inhibitory effects of our compounds were determined via a reported protocol. Sample dilutions (50 µL) and 100 µL of α-glucosidase solution (0.5 U/mL) were mixed. Then, 600 μL of phosphate buffer (0.1 M, pH 6.9) was added, and the mixture was incubated at 37 °C for 15 min. After this, 5 mM substrate (p-nitrophenyl α-D-glucopyranoside) solution (20 µL) in 0.1 M phosphate buffer (pH 6.9) was added and again incubated under the same conditions. Sodium carbonate was added to stop the reaction; at 405 nm, the absorbance was noted using a spectrophotometer. A mixture without α-glucosidase served as the blank, and a mixture without the test compound served as the control. The percent enzyme inhibition was calculated as:(1) % Alpha glucosidase inhibition=Control abs.−Sample abs./Control abs.×100

Data set [6] relates to alloxan-induced diabetic rats. Briefly: renal and liver function tests (biochemical profile of blood). The settings on record: NtSt01 1.0 mg/kg, standard glibenclamide; for S.Creatinine: reference range 0.4–0.8; for SGPT(ALT): reference range 17–30; for S.ALK.Phosphatase: reference range 30–130; for S.bilurubin: reference range up to 1.0.
Description: Renal functions tests were performed to determine blood urea and serum creatinine [38]. To determine blood urea, enzyme reagent 1 (1000 µL) and 10 µL of serum were mixed together and incubated for 5 min at 25 °C, followed by the addition of 1000 µL of reagent 2 to the mixture. After 5 min, the absorbance was recorded at 578 nm.
Serum glutamate pyruvate transaminase (SGPT/ALT), alkaline phosphatase (ALP), and bilirubin tests were performed following standard protocols using micro lab 300 and tecno plus biochemistry analyzers [39]. To perform the SGPT/ALT test, 50 µL of serum sample was added to 500 µL of reagent (400 µL of reagent 1 and 100 µL of reagent 2). […] To determine ALP, a kit was used following the manufacturer’s specifications: 10 µL of serum sample was added to 500 µL of reagent (400 µL of reagent 1 and 100 µL of reagent 2). […] Similarly, the concentration of bilirubin was evaluated using standard protocols. Four types of reagents, R1, R2, R3, and R4, were used in this test. R2 (25 µL) was added to R1 (100 µL). After this, 100 µL of serum sample and 500 µL of R3 were added and allowed to stand at 25 °C for 5 min. Then, 500 µL of R4 was added; at 25 °C for 5 min, the mixture was incubated. The absorbance of the sample was recorded at 546 nm.
Data set [7] deals with alloxan-induced diabetic rats. Put plainly: vital organ weights of fasting rats after treatment. Format: in vivo. The settings on record: after the 28-day experiment; NtSt01 1.0 mg/kg, glibenclamide 0.5 mg/kg. The source says: The experimental rats were purchased from the Breeding House of National Institute Health, Islamabad, Pakistan. The average weights of these rats ranged from 220 to 250 g. The animals were handled as per the guidelines of the University of […] animals By-Laws 2008 (Scientific Procedure Issue I) under the approval of the ethical committee via letter No. DREC-140/B. The food, water, and light/dark cycles provided to animals were observed by the ethical committee. The animals were euthanized as per the AVMA guidelines version 2020. The animals were subjected to slow exposure of halothane vapors to induce anesthesia. There was a gradual increase in the dosage of halothane vapors, which eventually euthanized the animals. […] Group 3: […] Group 4: […]

Data set [8] can be described thus: DPPH free radical scavenging assay. The protocol:
To evaluate the antioxidant potential of our compounds, the DPPH free radical scavenging assay developed by Brand William was used. The DPPH solution was made by dissolving 20 mg of DPPH in 100 mL of methanol, and its absorbance at 517 nm was adjusted to 0.75. Then, 2 mL of DPPH solution was added to 2 mL of sample dilutions ranging from 31.25 to 500 µg/mL, and the mixture was incubated at room temperature in the dark for 15 min. […] (3) % Inhibition=Control abs.−Sample abs./Control abs.×100
In general terms: DPPH is a stable violet radical that fades when it is reduced.

Converted amounts (≈) assume the structure as drawn.

α-glucosidase, sequence (P53341 whole entry): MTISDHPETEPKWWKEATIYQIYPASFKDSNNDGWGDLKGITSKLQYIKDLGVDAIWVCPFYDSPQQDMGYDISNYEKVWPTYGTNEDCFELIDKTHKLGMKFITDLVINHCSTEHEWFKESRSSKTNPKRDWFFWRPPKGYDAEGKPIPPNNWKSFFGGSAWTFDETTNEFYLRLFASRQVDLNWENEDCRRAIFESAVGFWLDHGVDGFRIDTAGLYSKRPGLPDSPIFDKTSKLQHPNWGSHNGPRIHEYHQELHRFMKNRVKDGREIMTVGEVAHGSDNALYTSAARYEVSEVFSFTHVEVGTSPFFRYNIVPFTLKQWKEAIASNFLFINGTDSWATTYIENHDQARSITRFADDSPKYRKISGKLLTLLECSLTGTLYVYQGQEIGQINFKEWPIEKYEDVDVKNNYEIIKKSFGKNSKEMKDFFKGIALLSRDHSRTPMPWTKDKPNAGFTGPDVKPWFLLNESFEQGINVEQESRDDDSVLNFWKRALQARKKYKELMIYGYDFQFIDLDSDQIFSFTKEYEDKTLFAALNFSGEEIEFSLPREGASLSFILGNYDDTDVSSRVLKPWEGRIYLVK

`CCC(C=CC(C)C1CCC2C3C=CC4=CC(OC(C)=O)CCC4(C)C3CCC12C)C(C)C` (stereo not drawn) [NtSt01, 3-β-Acetoxystigmasta-4,6,22-triene]: the body weight turned out to be 238 ± 0.33 g in data set [1] (Day 1); 240 ± 0.49 g in data set [1] (Day 7); 242 ± 1.04 g in data set [1] (Day 14); 245 ± 1.11 g in data set [1] (Day 21); 246 ± 0.11 g in data set [1] (Day 28). Further, in data set [2], the LDL worked out at 48.85 ± 1.08. Moreover, the S.Cholesterol in data set [2] was found to be 77.45 ± 1.72. The same molecule displayed a S.Triglycerides in data set [2] of 125 ± 3.65. Also, the HDL in data set [2] was determined as 38.10 ± 1.64. The “Percent Inhibition (Mean ± SEM)” value in data set [3] (31.25 μg/mL) came to 62.35 ± 1.78%; in data set [3] (62.50 μg/mL), 67.63 ± 2.51%; in data set [3] (125 μg/mL) it was 71.63 ± 0.92%; in data set [3] (250 μg/mL) it was 75.52 ± 0.96%; in data set [3] (500 μg/mL), 80.03 ± 2.11%; in data set [8] (31.25 μg/mL) it was 37.25 ± 2.66%. Moreover, the “Percent Inhibition (Mean ± SEM)” value is reported as 42.53 ± 0.69% in data set [8] (62.50 μg/mL), 47.08 ± 2.41% in data set [8] (125 μg/mL), 55.79 ± 0.92% in data set [8] (250 μg/mL) and 61.05 ± 2.05% in data set [8] (500 μg/mL). The values for the IC50 in data set [3] (α-amylase) and in data set [8] were 4.17 µg/mL (≈ 9.21 µM) and 142.76 µg/mL (≈ 315 µM), respectively. Further, the entries for the “potency relative to NtSt02 (from IC50 values)” value in data set [3] (α-amylase) and in data set [5] (α-glucosidase) were “eleven folds more potent than NtSt02” and “three times more potent than NtSt02”, respectively. Moreover, the acute toxicity observation result in data set [4] was “safe and no morbidity, mortality or irritation was observed”. Moreover, the S.Creatinine in data set [6] is given as 0.6 ± 0.02 mg/dL. Also, the “SGPT(ALT)” value in data set [6] is 32 ± 0.25 U/L. In data set [6], this molecule returned a S.ALK.Phosphatase of 134 ± 2.33 U/L. Moreover, the S.bilurubin in data set [6] came to 0.72 ± 0.77 mg/dL. Besides, in data set [7], the Heart weight stood at 1.04 ± 0.13 g. The Kidney weight in data set [7] was 1.01 ± 0.15 g. In addition, the Liver weight in data set [7] stood at 9.83 ± 0.92 g. This molecule registered a Pancreas weight in data set [7] of 0.92 ± 0.12 g.

For the molecule `C[C@H]1O[C@H](O[C@H]2[C@H](O)[C@@H](O)[C@@H](O[C@H]3[C@H](O)[C@@H](O)C(O)O[C@@H]3CO)O[C@@H]2CO)[C@H](O)[C@@H](O)[C@@H]1N[C@H]1C=C(CO)[C@@H](O)[C@H](O)[C@H]1O` (stereo partly drawn) [acarbose, reference compound], the “Percent Inhibition (Mean ± SEM)” value in data set [3] (500 μg/mL) was 91.01 ± 1.36%; in data set [5] it was 92.65 ± 0.55%.

For `CC(C)CCC[C@@H](C)[C@H]1CC[C@H]2[C@@H]3C=CC4=C[C@@H](OC(=O)c5ccccc5)CC[C@]4(C)[C@H]3CC[C@]12C` [NtSt02, 4,6-cholestadien-3beta-ol, benzoate], the “Percent Inhibition (Mean ± SEM)” value in data set [3] (31.25 μg/mL) is given as 46.84 ± 0.67%; in data set [3] (62.50 μg/mL) it was 53.10 ± 2.05%; in data set [3] (125 μg/mL), 60.04 ± 0.86%; in data set [3] (250 μg/mL), 64.32 ± 1.85%; in data set [3] (500 μg/mL), 74.99 ± 1.53%; in data set [8] (31.25 μg/mL) it was 28.52 ± 2.63%. The “Percent Inhibition (Mean ± SEM)” value in data set [8] (62.50 μg/mL) is given as 33.08 ± 1.17%; in data set [8] (125 μg/mL) it was 42.99 ± 2.70%; in data set [8] (250 μg/mL), 52.01 ± 1.07%; in data set [8] (500 μg/mL) it was 59.12 ± 1.96%. For the same molecule, the results for the IC50 in data set [3] (α-amylase) and in data set [8] were 46.73 µg/mL (≈ 95.6 µM) and 223.43 µg/mL (≈ 457 µM), respectively.

Consider `COc1ccc(Cl)cc1C(=O)NCCc1ccc(S(=O)(=O)NC(=O)NC2CCCCC2)cc1` [Glibenclamide, glibenclamide, reference compound], for which the body weight in data set [1] (Day 1) stood at 235 ± 1.36 g. The molecule further returned a body weight in data set [1] (Day 7) of 236 ± 1.37 g. Moreover, in data set [1] (Day 14), the body weight is 239 ± 0.67 g. In data set [1] (Day 21), this molecule showed a body weight of 244 ± 2.38 g. For the same molecule, the body weight in data set [1] (Day 28) turned out to be 249 ± 3.18 g. In addition, in data set [2], the LDL is reported as 34.16 ± 2.66, the S.Cholesterol is listed as 59.98 ± 0.99, the S.Triglycerides worked out at 112 ± 0.99 and the HDL is 32.55 ± 2.35. In data set [6], the S.Creatinine is on record as 0.43 ± 0.01 mg/dL, the “SGPT(ALT)” value is on record as 37 ± 1.11 U/L, the S.ALK.Phosphatase was found to be 125 ± 1.22 U/L and the S.bilurubin was determined as 0.81 ± 0.03 mg/dL. In data set [7], this molecule gave a Heart weight of 0.90 ± 0.02 g, a Kidney weight of 0.99 ± 0.16 g, a Liver weight of 9.21 ± 0.66 g and a Pancreas weight of 0.84 ± 0.21 g.

As a reminder, the IC50 is the midpoint of a concentration-inhibition curve. A low value points to inhibition by little substance.
